This passage reports Ki and inhibition results from ChEMBL document CHEMBL1137423, “Nanomolar inhibition of the enterobactin biosynthesis enzyme, EntE: synthesis, substituent effects, and additivity” (Bioorg Med Chem Lett, 2006).

In assay [1] the target is T1, Enterobactin synthase component E (Escherichia coli K-12, UniProt P10378).
T1 sequence (P10378 whole entry): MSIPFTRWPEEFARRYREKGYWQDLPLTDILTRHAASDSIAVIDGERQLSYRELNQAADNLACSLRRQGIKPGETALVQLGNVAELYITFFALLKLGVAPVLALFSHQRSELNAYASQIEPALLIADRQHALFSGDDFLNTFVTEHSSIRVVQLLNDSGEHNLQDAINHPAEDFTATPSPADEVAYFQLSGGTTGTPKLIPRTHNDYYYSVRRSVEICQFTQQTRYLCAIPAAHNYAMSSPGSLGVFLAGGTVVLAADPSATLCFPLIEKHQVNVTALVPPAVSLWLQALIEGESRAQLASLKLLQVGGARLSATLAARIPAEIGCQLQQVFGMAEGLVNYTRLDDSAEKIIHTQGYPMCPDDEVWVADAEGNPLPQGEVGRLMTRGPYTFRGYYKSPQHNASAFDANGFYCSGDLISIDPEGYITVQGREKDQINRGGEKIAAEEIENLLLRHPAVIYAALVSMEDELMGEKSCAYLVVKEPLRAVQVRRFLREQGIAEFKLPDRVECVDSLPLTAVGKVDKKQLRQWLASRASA
Description: Binding affinity to EntE corrected to substrate competition.

Assay [2] deals with T1, Enterobactin synthase component E. Kind of assay: Binding affinity to EntE. Particulars: read-out: Ki app.
Assay [3] deals with T2, Enterobactin synthase component E (Escherichia coli K-12) (UniProt P10378).
T2 sequence (whole entry): T1 sequence (P10378 whole entry)
Kind of assay: Inhibition of EntE at 0.0006 M.

In the case of `O=C(NOP(=O)(O)OC[C@H]1O[C@@H](n2cnc3cncnc32)[C@H](O)[C@@H]1O)c1cccc(O)c1O`, the Ki in assay [1] was 0.0045 µM; in assay [2], 0.009 µM. Regarding `O=C(NOP(=O)(O)OC[C@H]1O[C@@H](n2cnc3cncnc32)[C@H](O)[C@@H]1O)c1ccccc1O`, the Ki in assay [2] was 0.037 µM. With `CC(=O)NOP(=O)(O)OC[C@H]1O[C@@H](n2cnc3cncnc32)[C@H](O)[C@@H]1O`, the inhibition in assay [3] was < 10%. The Ki in assay [2] is ≥ 1000 µM. In the case of `O=C(NOP(=O)(O)OC[C@H]1O[C@@H](n2cnc3cncnc32)[C@H](O)[C@@H]1O)c1ccccc1`, the Ki in assay [2] came to 13 µM.
